Assay results: US20260285850A1, “SUBSTITUTED OXAZOLIDINONES AND IMIDAZOLINONES AS HERBICIDES” (FMC CORPORATION, priority 2023, published 2026)

What was measured:
Assay type in all cases: in vivo
[1] = tested on: barnyardgrass (Echinochloa crus-galli); assay: Test A preemergence soil spray, visual injury rating 0-100; conditions: 10 days
In short: (§1)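 Scale 0–100 (no effect to complete control), visual, versus untreated controls, read 10 days after application. Application: preemergence directed spray onto seeded loam–sand soil, or postemergence to young plants; formulation in non-phytotoxic solvent with surfactant.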

[2] = tested on: blackgrass (Alopecurus myosuroides); assay: as above; conditions: 10 days
In short: as §1

[3] = tested on: corn (Zea mays); assay: as above; conditions: 10 days
In short: as §1

[4] = tested on: green foxtail (Setaria viridis); assay: as above; conditions: 10 days
In short: as §1

[5] = tested on: kochia (Bassia scoparia); assay: as above; conditions: 10 days
In short: as §1

[6] = tested on: oat, wild (wild oat, Avena fatua); assay: as above; conditions: 10 days
In short: as §1

[7] = tested on: palmer (palmer amaranth, palmer pigweed, Amaranthus palmeri); assay: as above; conditions: 10 days
In short: as §1

[8] = tested on: ragweed (common ragweed, Ambrosia artemisiifolia); assay: as above; conditions: 10 days
In short: as §1

[9] = tested on: ryegrass, Italian (italian ryegrass, Lolium multiflorum); assay: as above; conditions: 10 days
In short: as §1

[10] = tested on: soybean (Glycine max); assay: as above; conditions: 10 days
In short: as §1

[11] = tested on: wheat (Triticum aestivum); assay: as above; conditions: 10 days
In short: as §1

[12] = tested on: barnyardgrass (Echinochloa crus-galli); assay: Test A postemergence application, visual injury rating 0-100
In short: as §1

[13] = tested on: blackgrass (Alopecurus myosuroides); assay: as above
In short: as §1

[14] = tested on: corn (Zea mays); assay: as above
In short: as §1

[15] = tested on: galium (catchweed bedstraw, Galium aparine); assay: as above
In short: as §1

[16] = tested on: green foxtail (Setaria viridis); assay: as above
In short: as §1

[17] = tested on: horseweed (Erigeron canadensis); assay: as above
In short: as §1

[18] = tested on: kochia (Bassia scoparia); assay: as above
In short: as §1

[19] = tested on: oat, wild (wild oat, Avena fatua); assay: as above
In short: as §1

[20] = tested on: palmer (palmer amaranth, palmer pigweed, Amaranthus palmeri); assay: as above
In short: as §1

[21] = tested on: ragweed (common ragweed, Ambrosia artemisiifolia); assay: as above
In short: as §1

[22] = tested on: ryegrass, Italian (italian ryegrass, Lolium multiflorum); assay: as above
In short: as §1

[23] = tested on: soybean (Glycine max); assay: as above
In short: as §1

[24] = tested on: wheat (Triticum aestivum); assay: as above
In short: as §1

[25] = tested on: barnyardgrass (Echinochloa crusgalli); assay: Test B flooded paddy test, visual plant response rating 0-100; conditions: 250 g ai/ha, Flood, applied to paddy water, evaluated after 13 days
In short: (§2)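 Paddy-water application: test compounds went directly into water flooded 3 cm above the soil surface, with plants at 2 leaves. After a 13-day greenhouse period, responses were judged by eye relative to controls; a dash marks an untested entry.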

[26] = tested on: ducksalad (Heteranthera limosa); assay: as above; conditions: 250 g ai/ha, Flood, applied to paddy water, evaluated after 13 days
In short: as §2

[27] = tested on: rice (Oryza sativa); assay: as above; conditions: 250 g ai/ha, Flood, applied to paddy water, evaluated after 13 days
In short: as §2

[28] = tested on: sedge, umbrella (small-flower umbrella sedge, Cyperus difformis); assay: as above; conditions: 250 g ai/ha, Flood, applied to paddy water, evaluated after 13 days
In short: as §2

[29] = 62 g ai/ha, 0 = no effect, 100 = complete control
[30] = 62 g ai/ha, postemergence, 10 days, 0 = no effect, 100 = complete control
[31] = Postemergence, 16 g ai/ha, greenhouse 10 days, 0 no effect, 100 complete control

For `CC(C)OC(=O)C1=CCC(NC(=O)C2(C)CN(c3cc(F)cc(F)c3)C(=O)O2)C1` (stereo not shown) [Compound 99], the “Barnyardgrass plant response rating” value ([1]; 16 g ai/ha, 0 to 100 scale) was 0, the “Barnyardgrass plant response rating (0-100)” value [1, 29] was 0 and the “Blackgrass plant response rating” value ([2]; 16 g ai/ha, 0 to 100 scale) was 0. The “Blackgrass plant response rating (0-100)” value [2, 29] was 0, the “Corn plant response rating” value ([3]; 16 g ai/ha, 0 to 100 scale) was 0 and the “Corn plant response rating (0-100)” value [3, 29] was 0. For the same compound, the “Foxtail, Green plant response rating” value ([4]; 16 g ai/ha, 0 to 100 scale) was 0, the “Foxtail, Green plant response rating (0-100)” value [4, 29] was 40 and the “Kochia plant response rating” value ([5]; 16 g ai/ha, 0 to 100 scale) was 0. The “Kochia plant response rating (0-100)” value [5, 29] was 0, the “Oat, Wild plant response rating” value ([6]; 16 g ai/ha, 0 to 100 scale) was 20 and the “Oat, Wild plant response rating (0-100)” value [6, 29] was 50. For the same compound, the “Pigweed, Palmer plant response rating” value ([7]; 16 g ai/ha, 0 to 100 scale) was 0, the “Pigweed, Palmer plant response rating (0-100)” value [7, 29] was 0 and the “Ragweed plant response rating” value ([8]; 16 g ai/ha, 0 to 100 scale) was 0. The “Ragweed plant response rating (0-100)” value [8, 29] was 0, the “Ryegrass, Italian plant response rating” value ([9]; 16 g ai/ha, 0 to 100 scale) was 0 and the “Ryegrass, Italian plant response rating (0-100)” value [9, 29] was 0. The “Soybean plant response rating” value ([10]; 16 g ai/ha, 0 to 100 scale) was 0, the “Soybean plant response rating (0-100)” value [10, 29] was 0 and the “Wheat plant response rating” value ([11]; 16 g ai/ha, 0 to 100 scale) was 0. For the same compound, the “Wheat plant response rating (0-100)” value [11, 29] was 0, the “Barnyardgrass plant response rating (0-100)” value [12, 30] was 0 and the “Barnyardgrass plant response rating (0 to 100 scale)” value [12, 31] was 0. The “Blackgrass plant response rating (0-100)” value [13, 30] was 0, the “Blackgrass plant response rating (0 to 100 scale)” value [13, 31] was 0 and the “Corn plant response rating (0-100)” value [14, 30] was 0. The “Corn plant response rating (0 to 100 scale)” value [14, 31] was 0, the “Galium plant response rating (0-100)” value [15, 30] was 20 and the “Galium plant response rating (0 to 100 scale)” value [15, 31] was 20. For the same compound, the “Foxtail, Green plant response rating (0-100)” value [16, 30] was 0, the “Foxtail, Green plant response rating (0 to 100 scale)” value [16, 31] was 0 and the “Horseweed plant response rating (0-100)” value [17, 30] was 0. For the same compound, the “Horseweed plant response rating (0 to 100 scale)” value [17, 31] was 0, the “Kochia plant response rating (0-100)” value [18, 30] was 0 and the “Kochia plant response rating (0 to 100 scale)” value [18, 31] was 0. For the same compound, the “Oat, Wild plant response rating (0-100)” value [19, 30] was 0, the “Oat, Wild plant response rating (0 to 100 scale)” value [19, 31] was 0 and the “Pigweed, Palmer plant response rating (0-100)” value [20, 30] was 0. For the same compound, the “Pigweed, Palmer plant response rating (0 to 100 scale)” value [20, 31] was 0, the “Ragweed plant response rating (0-100)” value [21, 30] was 0 and the “Ragweed plant response rating (0 to 100 scale)” value [21, 31] was 0. For the same compound, the “Ryegrass, Italian plant response rating (0-100)” value [22, 30] was 0, the “Ryegrass, Italian plant response rating (0 to 100 scale)” value [22, 31] was 0 and the “Soybean plant response rating (0-100)” value [23, 30] was 20. For the same compound, the “Soybean plant response rating (0 to 100 scale)” value [23, 31] was 0, the “Wheat plant response rating (0-100)” value [24, 30] was 10 and the “Wheat plant response rating (0 to 100 scale)” value [24, 31] was 0. For the same compound, the “Plant response rating, Barnyardgrass (0 to 100 scale, 0 is no effect and 100 is complete control)” value [25] was 0, the “Plant response rating, Ducksalad (0 to 100 scale, 0 is no effect and 100 is complete control)” value [26] was 0 and the “Plant response rating, Rice (0 to 100 scale, 0 is no effect and 100 is complete control)” value [27] was 0. For the same compound, the “Plant response rating, Sedge, Umbrella (0 to 100 scale, 0 is no effect and 100 is complete control)” value [28] was 0.
